{"source": "patent US11370798B2", "about": "(Vertex Pharmaceuticals Incorporated, priority 2012, dated 2022)", "test_system": "HCT116 colorectal cancer cells", "assay": "Cisplatin sensitization assay (96 h cell viability MTS);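 further: Test-compound concentration that lowers the Cisplatin IC50 by a set fold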", "format": "cell-based", "conditions": "compound and Cisplatin added simultaneously, Cisplatin sensitization value", "in_short": "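Compound and cisplatin added together as a full matrix of 2-fold serial dilutions from a top final concentration of 10 μM; cells incubated 96 h at 37° C, 5% CO2. Viability then read by MTS after 1 h further incubation; sensitization value reported in μM bins.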", "data": [{"compound": "Cc1cncc(NC(=O)c2c(N)nn3cc(F)cnc23)c1N1CCC(C(=O)N2CCN(C)CC2)CC1", "note": "[I-G-55, 2-amino-6-fluoro-N-(5-methyl-4-(4-(4-methylpiperazine-1-carbonyl)piperidin-1-yl)pyridin-3-yl)pyrazolo[1,5-a]pyrimidine-3-carboxamide]", "values": [{"measurement": "Cisplatin Sensitization Assay", "result": "+++ (Cisplatin sensitization value of <0.02 μM)"}]}, {"compound": "CN1CCN(c2ccncc2NC(=O)c2c(N)nn3cc(Cl)cnc23)CC1(C)C", "note": "[I-N-53, 2-amino-6-chloro-N-(4-(3,3,4-trimethylpiperazin-1-yl)pyridin-3-yl)pyrazolo[1,5-a]pyrimidine-3-carboxamide]", "values": [{"measurement": "Cisplatin Sensitization Assay", "result": "++ (Cisplatin sensitization value>0.02 μM but <0.2 μM)"}]}, {"compound": "CN(C)C1CN(C2CCN(c3ccncc3NC(=O)c3c(N)nn4cc(Cl)cnc34)CC2)C1", "note": "[I-N-94, 2-amino-6-chloro-N-(4-(4-(3-(dimethylamino)azetidin-1-yl)piperidin-1-yl)pyridin-3-yl)pyrazolo[1,5-a]pyrimidine-3-carboxamide]", "values": [{"measurement": "Cisplatin Sensitization Assay", "result": "+++ (Cisplatin sensitization value of <0.02 μM)"}]}, {"compound": "CN1CCN(C(=O)c2ccc(-c3ccncc3NC(=O)c3c(N)nn4cc(F)cnc34)cn2)CC1", "note": "[I-C-19, 2-amino-6-fluoro-N-(6-(4-methylpiperazine-1-carbonyl)-[3,4′-bipyridin]-3′-yl)pyrazolo[1,5-a]pyrimidine-3-carboxamide]", "values": [{"measurement": "Cisplatin Sensitization Assay", "result": "++ (Cisplatin sensitization value>0.02 μM but <0.2 μM)"}]}, {"compound": "C[N+]1([O-])CCc2c(cncc2NC(=O)c2c(N)nn3cc(F)cnc23)C1", "note": "(stereo not drawn) [I-C-9, 5-(2-amino-6-fluoropyrazolo[1,5-a]pyrimidine-3-carboxamido)-2-methyl-1,2,3,4-tetrahydro-2,7-naphthyridine 2-oxide]", "values": [{"measurement": "Cisplatin Sensitization Assay", "result": "+ (Cisplatin sensitization value>0.2 μM but <5 μM)"}]}, {"compound": "Nc1nn2cc(F)cnc2c1C(=O)Nc1cnccc1N1CCC(C(=O)N2CCC2)CC1", "note": "[I-G-77, 2-amino-N-(4-(4-(azetidine-1-carbonyl)piperidin-1-yl)pyridin-3-yl)-6-fluoropyrazolo[1,5-a]pyrimidine-3-carboxamide]", "values": [{"measurement": "Cisplatin Sensitization Assay", "result": "+++ (Cisplatin sensitization value of <0.02 μM)"}]}, {"compound": "CN1CCN(CC2CCN(c3c(F)cncc3NC(=O)c3c(N)nn4cc(C5(C#N)CC5)cnc34)CC2)CC1", "note": "[I-N-192, 2-amino-6-(1-cyanocyclopropyl)-N-(5-fluoro-4-(4-((4-methylpiperazin-1-yl)methyl)piperidin-1-yl)pyridin-3-yl)pyrazolo[1,5-a]pyrimidine-3-carboxamide]", "values": [{"measurement": "Cisplatin Sensitization Assay", "result": "+++ (Cisplatin sensitization value of <0.02 μM)"}]}, {"compound": "COc1cncc(NC(=O)c2c(N)nn3cc(F)cnc23)c1-c1cccnc1", "note": "[I-C-82, 2-amino-6-fluoro-N-(5′-methoxy-[3,4′-bipyridin]-3′-yl)pyrazolo[1,5-a]pyrimidine-3-carboxamide]", "values": [{"measurement": "Cisplatin Sensitization Assay", "result": "+++ (Cisplatin sensitization value of <0.02 μM)"}]}, {"compound": "N#CCc1cnc2c(C(=O)Nc3cnccc3N3CCCC3)c(N)nn2c1", "note": "[I-N-77, 2-amino-6-(cyanomethyl)-N-(4-(pyrrolidin-1-yl)pyridin-3-yl)pyrazolo[1,5-a]pyrimidine-3-carboxamide]", "values": [{"measurement": "Cisplatin Sensitization Assay", "result": "+ (Cisplatin sensitization value>0.2 μM but <5 μM)"}]}, {"compound": "Nc1nn2cc(F)cnc2c1C(=O)Nc1cnccc1N1CCN(S(=O)(=O)C2COC2)CC1", "note": "[I-N-195, 2-amino-6-fluoro-N-(4-(4-(oxetan-3-ylsulfonyl)piperazin-1-yl)pyridin-3-yl)pyrazolo[1,5-a]pyrimidine-3-carboxamide]", "values": [{"measurement": "Cisplatin Sensitization Assay", "result": "+++ (Cisplatin sensitization value of <0.02 μM)"}]}, {"compound": "CN1CCN(c2c(C#N)cncc2NC(=O)c2c(N)nn3cc(F)cnc23)CC1", "note": "[I-N-113, 2-amino-N-(5-cyano-4-(4-methylpiperazin-1-yl)pyridin-3-yl)-6-fluoropyrazolo[1,5-a]pyrimidine-3-carboxamide]", "values": [{"measurement": "Cisplatin Sensitization Assay", "result": "+ (Cisplatin sensitization value>0.2 μM but <5 μM)"}]}, {"compound": "Nc1nn2cc(F)cnc2c1C(=O)Nc1cnccc1N1CCN(C2CC2)CC1", "note": "[I-N-33, 2-amino-N-(4-(4-cyclopropylpiperazin-1-yl)pyridin-3-yl)-6-fluoropyrazolo[1,5-a]pyrimidine-3-carboxamide]", "values": [{"measurement": "Cisplatin Sensitization Assay", "result": "+ (Cisplatin sensitization value>0.2 μM but <5 μM)"}]}, {"compound": "COCC1CCN(c2ccncc2NC(=O)c2c(N)nn3cc(F)cnc23)CC1", "note": "[I-N-282, 2-amino-6-fluoro-N-(4-(4-(methoxymethyl)piperidin-1-yl)pyridin-3-yl)pyrazolo[1,5-a]pyrimidine-3-carboxamide]", "values": [{"measurement": "Cisplatin Sensitization Assay", "result": "+++ (Cisplatin sensitization value of <0.02 μM)"}]}, {"compound": "Nc1nn2cc(F)cnc2c1C(=O)Nc1cnccc1OC1CCC(C(=O)O)CC1", "note": "(stereo not drawn) [I-O-8, 4-((3-(2-amino-6-fluoropyrazolo[1,5-a]pyrimidine-3-carboxamido)pyridin-4-yl)oxy)cyclohexanecarboxylic acid]", "values": [{"measurement": "Cisplatin Sensitization Assay", "result": "+ (Cisplatin sensitization value>0.2 μM but <5 μM)"}]}, {"compound": "CN1CC2(CCN(c3ccncc3NC(=O)c3c(N)nn4cc(F)cnc34)CC2)CC1=O", "note": "[I-N-236, 2-amino-6-fluoro-N-(4-(2-methyl-3-oxo-2,8-diazaspiro[4.5]decan-8-yl)pyridin-3-yl)pyrazolo[1,5-a]pyrimidine-3-carboxamide]", "values": [{"measurement": "Cisplatin Sensitization Assay", "result": "+++ (Cisplatin sensitization value of <0.02 μM)"}]}, {"compound": "CN1CCN(C(=O)C2CCCN(c3c(F)cncc3NC(=O)c3c(N)nn4cc(F)cnc34)C2)CC1", "note": "(stereo not drawn) [I-N-289, 2-amino-6-fluoro-N-(5-fluoro-4-(3-(4-methylpiperazine-1-carbonyl)piperidin-1-yl)pyridin-3-yl)pyrazolo[1,5-a]pyrimidine-3-carboxamide]", "values": [{"measurement": "Cisplatin Sensitization Assay", "result": "++ (Cisplatin sensitization value>0.02 μM but <0.2 μM)"}]}, {"compound": "CN1C(=O)CCC12CCN(c1ccncc1NC(=O)c1c(N)nn3cc(F)cnc13)CC2", "note": "[I-N-235, 2-amino-6-fluoro-N-(4-(1-methyl-2-oxo-1,8-diazaspiro[4.5]decan-8-yl)pyridin-3-yl)pyrazolo[1,5-a]pyrimidine-3-carboxamide]", "values": [{"measurement": "Cisplatin Sensitization Assay", "result": "++ (Cisplatin sensitization value>0.02 μM but <0.2 μM)"}]}, {"compound": "Nc1nn2cc(F)cnc2c1C(=O)Nc1cncc(F)c1N1CCC(C(=O)N2CC(N3CCC3)C2)CC1", "note": "[I-G-49, N-(4-(4-([1,3′-biazetidine]-1′-carbonyl)piperidin-1-yl)-5-fluoropyridin-3-yl)-2-amino-6-fluoropyrazolo[1,5-a]pyrimidine-3-carboxamide]", "values": [{"measurement": "Cisplatin Sensitization Assay", "result": "+++ (Cisplatin sensitization value of <0.02 μM)"}]}, {"compound": "Cc1cncc(NC(=O)c2c(N)nn3cc(F)cnc23)c1-n1nccc1C", "note": "[I-N-237]", "values": [{"measurement": "Cisplatin Sensitization Assay", "result": "+ (Cisplatin sensitization value>0.2 μM but <5 μM)"}]}, {"compound": "Cn1nncc1-c1ccncc1NC(=O)c1c(N)nn2cc(F)cnc12", "note": "[I-C-72, 2-amino-6-fluoro-N-(4-(1-methyl-1H-1,2,3-triazol-5-yl)pyridin-3-yl)pyrazolo[1,5-a]pyrimidine-3-carboxamide]", "values": [{"measurement": "Cisplatin Sensitization Assay", "result": "+++ (Cisplatin sensitization value of <0.02 μM)"}]}, {"compound": "CC(C)(C)Oc1ccncc1NC(=O)c1c(N)nn2cc(F)cnc12", "note": "[I-O-88, 2-amino-N-(4-(tert-butoxy)pyridin-3-yl)-6-fluoropyrazolo[1,5-a]pyrimidine-3-carboxamide]", "values": [{"measurement": "Cisplatin Sensitization Assay", "result": "+++ (Cisplatin sensitization value of <0.02 μM)"}]}, {"compound": "Cc1cncnc1-c1ccncc1NC(=O)c1c(N)nn2cc(F)cnc12", "note": "[I-C-67, 2-amino-6-fluoro-N-(4-(5-methylpyrimidin-4-yl)pyridin-3-yl)pyrazolo[1,5-a]pyrimidine-3-carboxamide]", "values": [{"measurement": "Cisplatin Sensitization Assay", "result": "++ (Cisplatin sensitization value>0.02 μM but <0.2 μM)"}]}, {"compound": "CC1CN(C)CCN1c1ccncc1NC(=O)c1c(N)nn2cc(Cl)cnc12", "note": "(stereo not drawn) [I-N-72, 2-amino-6-chloro-N-(4-(2,4-dimethylpiperazin-1-yl)pyridin-3-yl)pyrazolo[1,5-a]pyrimidine-3-carboxamide]", "values": [{"measurement": "Cisplatin Sensitization Assay", "result": "+++ (Cisplatin sensitization value of <0.02 μM)"}]}, {"compound": "CN(C)CCCN(C)C(=O)C1CCN(c2c(F)cncc2NC(=O)c2c(N)nn3cc(F)cnc23)CC1", "note": "[I-G-16, 2-amino-N-(4-(4-((3-(dimethylamino)propyl)(methyl)carbamoyl)piperidin-1-yl)-5-fluoropyridin-3-yl)-6-fluoropyrazolo[1,5-a]pyrimidine-3-carboxamide]", "values": [{"measurement": "Cisplatin Sensitization Assay", "result": "+++ (Cisplatin sensitization value of <0.02 μM)"}]}, {"compound": "Nc1nn2cc(F)cnc2c1C(=O)Nc1cnccc1CN1CCCC1=O", "note": "[I-C-76, 2-amino-6-fluoro-N-(4-((2-oxopyrrolidin-1-yl)methyl)pyridin-3-yl)pyrazolo[1,5-a]pyrimidine-3-carboxamide]", "values": [{"measurement": "Cisplatin Sensitization Assay", "result": "+ (Cisplatin sensitization value>0.2 μM but <5 μM)"}]}, {"compound": "Nc1nn2cc(F)cnc2c1C(=O)Nc1cncc(F)c1N1CCN2C(=O)CCC2C1", "note": "(stereo not drawn) [I-N-163, 2-amino-6-fluoro-N-(5-fluoro-4-(6-oxohexahydropyrrolo[1,2-a]pyrazin-2(1H)-yl)pyridin-3-yl)pyrazolo[1,5-a]pyrimidine-3-carboxamide]", "values": [{"measurement": "Cisplatin Sensitization Assay", "result": "+++ (Cisplatin sensitization value of <0.02 μM)"}]}, {"compound": "Cc1ccncc1NC(=O)c1c(N)nn2cc(Cl)cnc12", "note": "[I-C-2, 2-amino-6-chloro-N-(4-methylpyridin-3-yl)pyrazolo[1,5-a]pyrimidine-3-carboxamide]", "values": [{"measurement": "Cisplatin Sensitization Assay", "result": "++ (Cisplatin sensitization value>0.02 μM but <0.2 μM)"}]}, {"compound": "Nc1nn2cc(Cl)cnc2c1C(=O)Nc1cnccc1N1CCC(N2CC(F)(F)C2)CC1", "note": "[I-N-108, 2-amino-6-chloro-N-(4-(4-(3,3-difluoroazetidin-1-yl)piperidin-1-yl)pyridin-3-yl)pyrazolo[1,5-a]pyrimidine-3-carboxamide]", "values": [{"measurement": "Cisplatin Sensitization Assay", "result": "+++ (Cisplatin sensitization value of <0.02 μM)"}]}, {"compound": "Nc1nn2cc(F)cnc2c1C(=O)Nc1cncc(F)c1N1CCC(C(=O)NC2COC2)CC1", "note": "[I-G-37, 2-amino-6-fluoro-N-(5-fluoro-4-(4-(oxetan-3-ylcarbamoyl)piperidin-1-yl)pyridin-3-yl)pyrazolo[1,5-a]pyrimidine-3-carboxamide]", "values": [{"measurement": "Cisplatin Sensitization Assay", "result": "++ (Cisplatin sensitization value>0.02 μM but <0.2 μM)"}]}, {"compound": "Nc1nn2cc(F)cnc2c1C(=O)Nc1cncc(F)c1N1CCC(N2CCOCC2)CC1", "note": "[I-N-189, 2-amino-6-fluoro-N-(5-fluoro-4-(4-morpholinopiperidin-1-yl)pyridin-3-yl)pyrazolo[1,5-a]pyrimidine-3-carboxamide]", "values": [{"measurement": "Cisplatin Sensitization Assay", "result": "+++ (Cisplatin sensitization value of <0.02 μM)"}]}]}
